Results: patent US20060235222A1, “Indole-derivative modulators of steroid hormone nuclear receptors” (ELI LILLY AND COMPANY, priority 2003, published 2006)

Experiments:
[1] = molecular target: T1, glucocorticoid receptor (Homo sapiens, UniProt P04150); assay: Glucocorticoid Receptor Binding Assay (Method 1), [3H]-dexamethasone competition, A549 cell extract; conditions: 1.86 nM [3H]-dexamethasone, read-out: GR Ki (nM) Method 1
T1 construct: containing 50-200 ug of A549 cell extract and 1.86 nM; host or cells: A549 human lung epithelial cells
T1 sequence (P04150 1-777): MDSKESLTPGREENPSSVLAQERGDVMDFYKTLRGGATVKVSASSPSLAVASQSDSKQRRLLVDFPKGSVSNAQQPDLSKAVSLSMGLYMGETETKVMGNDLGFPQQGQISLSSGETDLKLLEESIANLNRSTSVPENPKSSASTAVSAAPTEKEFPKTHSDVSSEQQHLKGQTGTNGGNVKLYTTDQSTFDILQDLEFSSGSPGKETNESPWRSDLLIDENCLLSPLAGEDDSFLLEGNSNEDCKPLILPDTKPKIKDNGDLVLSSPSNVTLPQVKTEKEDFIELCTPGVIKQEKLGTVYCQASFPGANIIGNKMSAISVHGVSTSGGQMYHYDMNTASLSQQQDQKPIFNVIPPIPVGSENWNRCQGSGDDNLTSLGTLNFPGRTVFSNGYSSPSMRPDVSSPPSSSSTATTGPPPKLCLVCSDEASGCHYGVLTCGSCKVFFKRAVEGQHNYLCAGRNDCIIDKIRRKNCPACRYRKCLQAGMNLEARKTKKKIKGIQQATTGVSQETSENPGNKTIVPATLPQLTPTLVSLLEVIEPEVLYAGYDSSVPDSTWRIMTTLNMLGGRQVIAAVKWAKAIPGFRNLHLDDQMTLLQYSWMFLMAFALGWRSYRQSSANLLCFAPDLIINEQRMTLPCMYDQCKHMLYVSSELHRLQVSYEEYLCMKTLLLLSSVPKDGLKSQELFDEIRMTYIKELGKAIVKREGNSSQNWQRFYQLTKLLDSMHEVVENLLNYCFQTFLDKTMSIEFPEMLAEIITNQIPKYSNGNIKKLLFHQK
Protocol: Glucocorticoid Receptor Binding Assay (Method 1):
A549 human lung epithelial cells (ATCC) are grown at a scale where gram quantity cell pellets are obtained. Harvested cell pellets are washed twice in cold phosphate buffered saline, centrifuged, and resuspended in cold assay binding buffer. The assay binding buffer consists of 10% glycerol, 50 mM Tris-HCl (pH7.2), 75 mM sodium chloride, 1.5 mM magnesium chloride, 1.5 mM EDTA, and 10 mM sodium molybdate. Cell suspensions were lysed via sonication, centrifuged, and the “extract” supernatant is snap frozen and stored at −80 C until needed.
Incubations are carried out at 4 degrees Celsius for 16 hours. After incubation, 70 ul of 3× dextran-coated charcoal solution is added to each reaction, mixed, and incubated for 8 minutes at RT. 3×-dextran-coated charcoal solution consists of 250 ml assay binding buffer, 3.75 g Norit A charcoal (Sigma), and 1.25 g dextran T-70 (Amersham). Charcoal/unbound radioligand complexes are removed by centrifugation of the plate and 140 ul of supernatant from each well is transferred to another 96 well Optiplate (Packard Instruments). 200 ul of Microscint-20 scinillant (Packard Instruments) is added to each well and amount of receptor bound radioligand is determined using Packard Instruments TopCount instrument.

[2] = molecular target: T2, human MR (Homo sapiens, UniProt P08235); assay: Mineralocorticoid Receptor Binding Assay (Method 1), [3H]-aldosterone competition; conditions: 0.5 nM [3H]-aldosterone, human MR expressed in Sf9 cells
T2 construct: The full length human MR gene is cloned from a human kidney or human brain cDNA library; inferred from own knowledge of the pAcHLT vector (N); made in house; host or cells: Sf9 insect cells (baculovirus)
T2 sequence (P08235 1-984): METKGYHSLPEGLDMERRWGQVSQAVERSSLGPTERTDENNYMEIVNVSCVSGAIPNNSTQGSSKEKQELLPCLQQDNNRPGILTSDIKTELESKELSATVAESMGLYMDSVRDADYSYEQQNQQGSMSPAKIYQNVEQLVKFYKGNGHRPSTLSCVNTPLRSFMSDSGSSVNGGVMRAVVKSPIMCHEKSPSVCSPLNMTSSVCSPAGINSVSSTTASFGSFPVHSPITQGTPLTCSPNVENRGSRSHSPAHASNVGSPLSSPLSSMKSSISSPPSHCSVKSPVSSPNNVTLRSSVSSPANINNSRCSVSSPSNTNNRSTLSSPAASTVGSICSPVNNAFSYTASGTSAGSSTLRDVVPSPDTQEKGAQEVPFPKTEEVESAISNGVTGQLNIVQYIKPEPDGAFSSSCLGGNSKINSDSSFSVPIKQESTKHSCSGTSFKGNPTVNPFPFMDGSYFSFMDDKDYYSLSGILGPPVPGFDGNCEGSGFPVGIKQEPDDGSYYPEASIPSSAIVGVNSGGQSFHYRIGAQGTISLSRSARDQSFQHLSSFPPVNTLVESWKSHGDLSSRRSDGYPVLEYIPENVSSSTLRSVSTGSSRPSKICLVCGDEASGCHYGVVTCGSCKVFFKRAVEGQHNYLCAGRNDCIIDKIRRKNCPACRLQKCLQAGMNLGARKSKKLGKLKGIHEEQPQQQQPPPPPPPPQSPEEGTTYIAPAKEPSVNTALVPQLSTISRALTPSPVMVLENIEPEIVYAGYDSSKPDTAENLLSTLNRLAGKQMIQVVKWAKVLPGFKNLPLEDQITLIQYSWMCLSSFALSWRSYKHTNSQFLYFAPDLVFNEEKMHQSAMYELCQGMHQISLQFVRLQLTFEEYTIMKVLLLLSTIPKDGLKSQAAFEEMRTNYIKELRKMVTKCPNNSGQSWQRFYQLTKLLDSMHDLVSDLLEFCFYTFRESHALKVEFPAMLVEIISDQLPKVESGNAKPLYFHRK
Protocol: Mineralocorticoid Receptor Binding Assay (Method 1):
The full length human MR gene is cloned from a human kidney or human brain cDNA library. […] The PCR reaction is performed in a final volume of 50 μl containing about 1 μl of a 50× stock solution of polymerase; about 1 μl of a 50× stock solution of dNTP; about 5 μl of an appropriate PCR buffer; about 1 μl of each primer; about 5 μl of a H. kidney or H. brain cDNA library; and about 36 μl of water. The reaction is allowed to denature for about 30 seconds at 95 degrees Celsius, anneal for about 30 seconds at 55 degrees Celsius, and extend for about 5 minutes at 72 degrees Celsius, the sequence being repeated for a total of about 35 cycles. […] To extract the cDNA product from the agarose gel, the QIAEX II Gel Extraction protocol (QIAGEN, Inc.) is employed according to the manufacturer's instructions. Following extraction, the MR cDNA is cloned into an appropriate cloning vector (Zero Blunt TOPO PCR Cloning Kit (Invitrogen, Inc.) and a pAcHLT-baculovirus transfer vector (B.D./Pharminogen), then expressed in SF9 insect cells, essentially according to manufacturer's instructions. Sf9 cells are grown at a scale where gram quantity cell pellets are obtained for subsequent use in the MR binding assay. Harvested cell pellets are lysed by repeated freeze-thaw cycles (about 4) in a suitable lysis buffer then centrifuged at about 1×10^3 G (with the supernatant being saved for future assays).
MR binding assays are performed in a final total volume of about 250 μl containing about 20-25 μg of protein and 0.5 nM of [^3H]-aldosterone plus varying concentrations of test compound or vehicle. The assay binding buffer consists of 30 mM sodium molybdate, 30 mM of TRIS-HCl, 5 mM sodium phosphate, 5 mM sodium pyrophosphate, and about 10% glycerol, pH=7.5.
Incubations are carried out at 4 degrees Celsius with shaking for about 16 hours. 200 μl aliquots of each incubation are filtered onto Millipore HA 0.45 micron 96-well filter plates, pre-moistened with cold 30 mM TRIS-HCl. The filter plates are suctioned dry with vacuum and immediately washed 3× with cold 30 mM TRIS-HCl. The plates are then punched out and the amount of receptor-ligand complex is determined by liquid scintillation counting using 4 ml of Ready Protein Plus™ liquid scintillation cocktail.

Row | Ki [1] | Ki [2] | Structure (SMILES)
1 | < 500 nM | < 500 nM | COc1ccc(C(C)(c2c[nH]c3c(C)cccc23)C2CC2)cc1 (centres unmarked) [Example 24, 3-[1-Cyclopropyl-1-(4-methoxy-phenyl)-ethyl]-7-methyl-1H-indole]
2 | < 500 nM | < 500 nM | CCc1cccc2c(C(C)(c3ccccc3)c3ccc(OC)cc3)c[nH]c12 (centres unmarked) [Example 25]
3 | < 500 nM | < 500 nM | CCCC(C)(c1ccc(F)cc1)c1c[nH]c2c(C)cccc12 (centres unmarked) [Example 26, 3-[1-(4-Fluoro-phenyl)-1-methyl-butyl]-7-methyl-1H-indole]
4 | < 1000 nM | < 500 nM | CCc1cccc2c(C(C)(c3ccc(O)cc3)c3ccc(F)cc3)c[nH]c12 (centres unmarked) [Example 27, 4-[1-(7-Ethyl-1H-indole-3-yl)-1-(4-fluoro-phenyl)-ethyl]-phenol]
5 | < 1000 nM | < 500 nM | COc1ccc(C(C)(c2ccccc2)c2c[nH]c3c(C)cccc23)cc1 (centres unmarked) [Example 28, 3-[1-(4-Methoxy-phenyl)-1-phenyl-ethyl]-7-methyl-1H-indole]
6 | < 1000 nM | < 500 nM | CCC(CC)(c1cc2cc(OC)ccc2o1)c1c[nH]c2c(NS(C)(=O)=O)cccc12 [Example 29, N-{3-[1-Ethyl-1-(5-methoxy-benzofuran-2-yl)-propyl]-1H-indol-7-yl}-methanesulfonamide]
7 | < 500 nM | < 500 nM | CCC(CC)(c1ccco1)c1c[nH]c2c(NS(C)(=O)=O)cccc12 [Example 30, N-[3-(1-Ethyl-1-furan-2-yl-propyl)-1H-indol-7-yl]-methanesulfonamide]
8 | < 500 nM | < 500 nM | CCC(C)(c1ccc(OC)cc1)c1c[nH]c2c(C)cccc12 (centres unmarked) [Example 31, 3-[1-(4-Methoxy-phenyl)-1-methyl-propyl]-7-methyl-1H-indole]
9 | < 10000 nM | < 500 nM | Cc1cccc2c(C3(c4ccc(F)cc4)CCCCC3)c[nH]c12 [Example 32, 3-[1-(4-Fluoro-phenyl)-cyclohexyl]-7-methyl-1H-indole]
10 | < 500 nM | < 500 nM | CS(=O)(=O)Nc1cccc2c(C3(c4ccccc4)CCOCC3)c[nH]c12 [Example 33, N-[3-(4-Phenyl-tetrahydro-pyran-4-yl)-1H-indol-7-yl]-methanesulfonamide]
11 | < 10000 nM | < 500 nM | CCCC(C)(c1ccc(OC(F)(F)F)cc1)c1c[nH]c2c(N)cccc12 (centres unmarked) [Example 35]
12 | < 10000 nM | < 500 nM | CC(C)(c1cccc(-c2ccc(F)cc2)c1)c1c[nH]c2c(NS(C)(=O)=O)cccc12 [Example 36, N-{3-[1-(4′-Fluoro-biphenyl-3-yl)-1-methyl-ethyl]-1H-indol-7-yl}-methanesulfonamide]
13 | < 1000 nM | < 500 nM | CCCC(C)(c1cccc(OC)c1)c1c[nH]c2c(N)cccc12 (centres unmarked) [Example 38, 3-[1-(3-Methoxy-phenyl)-1-methyl-butyl]-1H-indol-7-ylamine]
14 | < 1000 nM | < 500 nM | CC(C)(c1ccc(-c2ccccc2)cc1)c1c[nH]c2c(NS(C)(=O)=O)cccc12 [Example 39, N-[3-(1-Biphenyl-4-yl-1-methyl-ethyl)-1H-indol-7-yl]-methanesulfonamide]
15 | < 500 nM | < 500 nM | Cc1cccc2c(C(C)(c3ccc(F)cc3)C3CC3)c[nH]c12 (centres unmarked) [Example 40, 3-[1-Cyclopropyl-1-(4-fluoro-phenyl)-ethyl]-7-methyl-1H-indole]
16 | < 10000 nM | < 1000 nM | Cc1ccc(C(C)(C)c2c[nH]c3c(N)cccc23)cc1 [Example 41, 3-(1-Methyl-1-p-tolyl-ethyl)-1H-indol-7-ylamine]
17 | < 10000 nM | < 10000 nM | CC(c1ccccc1)(c1ccccc1)c1cn(CC(=O)O)c2ccccc12 [Example 42, [3-(1,1-Diphenyl-ethyl)-indol-1-yl]-acetic acid]
18 | < 1000 nM | < 500 nM | CCCC(C)(c1ccc(OC(F)(F)F)cc1)c1c[nH]c2c(NS(C)(=O)=O)cccc12 (centres unmarked) [Example 43]
19 | < 500 nM | < 500 nM | CCCC(C)(c1ccccc1OC)c1c[nH]c2c(NS(C)(=O)=O)cccc12 (centres unmarked) [Example 44, N-{3-[1-(2-Methoxy-phenyl)-1-methyl-butyl]-1H-indol-7-yl}-methanesulfonamide]
20 | < 500 nM | < 500 nM | CCCC(C)(c1ccc(OC)cc1)c1c[nH]c2c(NS(C)(=O)=O)cccc12 (centres unmarked) [Example 45, N-{3-[1-(4-Methoxy-phenyl)-1-methyl-butyl]-1H-indol-7-yl}-methanesulfonamide]
21 | < 500 nM | < 500 nM | CCCC(C)(c1cccc(OC)c1)c1c[nH]c2c(NS(C)(=O)=O)cccc12 (centres unmarked) [Example 46, N-{3-[1-(3-Methoxy-phenyl)-1-methyl-butyl]-1H-indol-7-yl}-methanesulfonamide]

Row | Structure (SMILES) | Ki [1] | Ki [2]
22 | CCCC(C)(c1ccccc1)c1c[nH]c2c(C)cccc12 (centres unmarked) [Example 37, 7-Methyl-3-(1-methyl-1-phenyl-butyl)-1H-indole] | < 500 nM | < 500 nM
